The values that follow come from BindingDB's records for doi:10.1016/j.bioorg.2015.06.006 (Hazara University, 2015).

In this assay the target is Alpha-glucosidase MAL12 (Saccharomyces cerevisiae (strain ATCC 204508 / S288c), UniProt P53341). Briefly: Alpha-glucosidase Assay. As to conditions: pH 6.8. The procedure: Total volume of 100 µL reaction mixture contained 70 µL 50 mM phosphate buffer pH 6.8, 10 µL test compound (0.5 mM in methanol) followed by the addition of 10 µL enzyme solution (0.057 units) in the buffer. The contents were mixed, pre-incubated for 10 min at 37 °C and pre-read at 400 nm. The reaction was initiated by the addition of 10 µL of 0.5 mM substrate (p-nitrophenyl glucopyranoside). After 30 min of incubation at 37 °C, absorbance of p-nitrophenol released was measured. Acarbose was used as positive control.
Sequence of Alpha-glucosidase MAL12 (P53341 whole entry): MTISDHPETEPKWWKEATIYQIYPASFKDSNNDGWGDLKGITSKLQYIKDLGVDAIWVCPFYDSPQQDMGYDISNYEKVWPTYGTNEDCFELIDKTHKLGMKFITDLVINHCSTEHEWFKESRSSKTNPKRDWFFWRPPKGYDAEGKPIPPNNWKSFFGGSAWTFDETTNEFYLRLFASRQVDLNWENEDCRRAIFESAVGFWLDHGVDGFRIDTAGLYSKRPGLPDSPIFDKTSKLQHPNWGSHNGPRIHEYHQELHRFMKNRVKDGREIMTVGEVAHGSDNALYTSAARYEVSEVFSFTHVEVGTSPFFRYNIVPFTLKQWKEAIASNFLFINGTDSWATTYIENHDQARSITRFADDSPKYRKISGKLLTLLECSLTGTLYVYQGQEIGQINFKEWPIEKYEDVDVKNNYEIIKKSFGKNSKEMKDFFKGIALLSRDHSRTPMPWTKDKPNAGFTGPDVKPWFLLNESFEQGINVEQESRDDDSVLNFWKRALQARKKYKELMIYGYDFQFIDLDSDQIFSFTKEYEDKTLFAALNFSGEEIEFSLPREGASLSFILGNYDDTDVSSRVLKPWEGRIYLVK

Regarding `COc1ccc(-c2csc(N/N=C\c3cccc(/C=N/Nc4nc(-c5ccc(OC)cc5)cs4)c3)n2)cc1` [1-((E)-(2-(4-(4-Methoxyphenyl)thiazol-2-yl)hydrazono)-methyl)-3-((Z)-(2-(4-(4-methoxyphenyl)thiazol-2-yl)hydrazono)-methyl)benzene (18)], the 50% inhibitory concentration (IC50) is 55.4 µM.
For `Clc1ccc(-c2csc(N/N=C\c3cccc(/C=N/Nc4nc(-c5ccc(Cl)cc5)cs4)c3)n2)cc1` [1-((E)-(2-(4-(4-chlorophenyl)thiazol-2-yl)hydrazono)methyl)-3-((Z)-(2-(4-(4-chlorophenyl)thiazol-2-yl)hydrazono)methyl)benzene (9)] the value was 68.5 µM.
`Clc1ccc(-c2csc(N/N=C/c3ccc(/C=N/Nc4ncc(-c5ccc(Cl)cc5)s4)cc3)n2)cc1` [5-(4-chlorophenyl)-2-((E)-2-(4-((E)-(2-(4-(4-chlorophenyl)-thiazol-2-yl)hydrazono)methyl)benzylidene)hydrazinyl)thiazole (10)] displayed a concentration for half-maximal inhibition (IC50) of 342 µM.
Turning to `COc1ccc(-c2csc(N/N=C/c3ccc(/C=N/Nc4ncc(-c5ccc(OC)cc5)s4)cc3)n2)cc1` [5-(4-methoxyphenyl)-2-((E)-2-(4-((E)-(2-(4-(4-methoxyphenyl)thiazol-2-yl)hydrazono)methyl)benzylidene)-hydrazinyl)thiazole (19)], the IC50 worked out at 226 µM.
The value for `CC(C)(C)c1cc(/C=N/Nc2nc(-c3ccc(Cl)cc3)cs2)cc(C(C)(C)C)c1O` [(E)-2,6-Di-t-butyl-4-((2-(4-(4-Chlorophenyl)thiazole-2-yl)-hydrazono)methyl)-phenol (8)] was 18.2 µM; that for `COc1ccc(-c2csc(N/N=C/c3cc(C(C)(C)C)c(O)c(C(C)(C)C)c3)n2)cc1` [(E)-2,6-Di-tert-butyl-4-((2-(4-(4-Methoxyphenyl)thiazol-2-yl)hydrazono)-methyl)phenol (17)] was 123 µM.
The value for `C/C(=N\Nc1nc(-c2ccc(Cl)cc2)cs1)c1ccc([N+](=O)[O-])cc1Br` [(E)-2-(2-(1-(2-Bromo-4-nitrophenyl)ethylidene)hydrazinyl)-4-(4-chlorophenyl)thiazole (2)] was 43.3 µM; that for `Clc1ccc(-c2csc(N/N=C/c3ccc(OCc4ccccc4)cc3)n2)cc1` [(E)-2-(2-(4-(Benzyloxy)benzylidene)hydrazinyl)-4-(4-chlorophenyl)thiazole (7)] was 36.8 µM.
Molecule `COc1ccc(-c2csc(N/N=C/c3ccc(OCc4ccccc4)cc3)n2)cc1` [(E)-2-(2-(4-(Benzyloxy)benzylidene)hydrazinyl)-4-(4-methoxyphenyl)thiazole (16)] registered an IC50 of 99.2 µM.
For `COc1ccc(-c2csc(N/N=C/c3c4ccccc4cc4ccccc34)n2)cc1` [(E)-2-(2-(Anthracen-9-ylmethylene)hydrazinyl)-4-(4-methoxyphenyl)thiazole (13)] the value was 192 µM; for `COc1ccc(-c2csc(N/N=C/c3ccc(OC)c(O)c3)n2)cc1` [(E)-2-Methoxy-5-((2-(4-(4-methoxyphenyl)thiazol-2-yl)-hydrazono)methyl)-phenol (20)], 176 µM.
The value for `C/C(=N\Nc1nc(-c2ccc(Cl)cc2)cs1)c1ccc(N2CCCCC2)cc1` [(E)-4-(4-Chlorophenyl)-2-(2-(1-(4-(piperidin-1-yl)phenyl)-ethylidene)hydrazinyl)thiazole (4)] was 388 µM; that for `O=[N+]([O-])c1ccccc1/C=N/Nc1nc(-c2ccc(Cl)cc2)cs1` [(E)-4-(4-Chlorophenyl)-2-(2-(2-nitrobenzylidene)hydrazinyl)-thiazole (3)] was 239 µM.
`O=[N+]([O-])c1cccc(/C=N/Nc2nc(-c3ccc(Cl)cc3)cs2)c1` [(E)-4-(4-Chlorophenyl)-2-(2-(3-nitrobenzylidene)hydrazinyl)-thiazole (1)]: the IC50 amounted to 220 µM.
For the molecule `Clc1ccc(-c2csc(N/N=C/c3ccc4ccccc4c3)n2)cc1` [(E)-4-(4-Chlorophenyl)-2-(2-(naphthalene-2-yl-methylene)hydrazinyl)thiazole (6)], the IC50 is 175 µM.
The value for `COc1ccc(-c2csc(N/N=C(\C)c3cccc([N+](=O)[O-])c3)n2)cc1` [(E)-4-(4-Methoxyphenyl)-2-(2-(1-(3-nitrophenyl)-ethylidene)hydrazinyl)thiazole (12)] was 424 µM.
For `COc1ccc(-c2csc(N/N=C/c3ccc4ccccc4c3)n2)cc1` [(E)-4-(4-Methoxyphenyl)-2-(2-(naphthalen-2-yl-methylene)-hydrazinyl)thiazole (15)] the value was 194 µM; for `CN(C)c1ccc(/C=N/Nc2nc(-c3ccc(Cl)cc3)cs2)cc1` [(E)-4-((2-(4-(4-Chlorophenyl)thiazol-2-yl)hydrazono)methyl)-N,N-dimethyl-aniline (5)], 205 µM; for `COc1ccc(-c2csc(N/N=C/c3ccc(N(C)C)cc3)n2)cc1` [(E)-4-((2-(4-(4-Methoxyphenyl)thiazol-2-yl)hydrazono)-methyl)-N,N-dimethylaniline (14)], 146 µM.
In the case of `COc1ccc(-c2csc(N/N=C/c3ccc(O)c(O)c3)n2)cc1` [(E)-4-((2-(4-(4-Methoxyphenyl)thiazol-2-yl)hydrazono)-methyl)benzene-1,2-diol (21)], 46.4 µM corresponded to half-maximal inhibition (IC50).
Molecule `COc1ccc(/C=N/Nc2nc(-c3ccc(Cl)cc3)cs2)cc1O` [(E)-5-((2-(4-(4-Chlorophenyl)thiazole-2-yl)hydrazono)-methyl)-2-methoxy-phenol (11)] gave a half-maximal inhibitory concentration (IC50) of 176 µM.

As a reminder, the IC50 is the concentration that inhibits the measured activity by half.
